Literature values as cited in US20210128795A1, “SPIRAL COATED STENT WITH CONTROLLABLE GRADIENT DEGRADATION, PREPARATION METHOD THEREOF AND APPLICATION THEREOF” (Zhuhai Ruizhan Biomaterials Co., Ltd., priority 2018, published 2021).
Read-outs that look alike come from different tables or passages of the source.

System: rats

| Structure (SMILES) | LD50 value (median lethal dose) (rat, in vivo) | LD50 value (median lethal dose) (rats per os) |
| --- | --- | --- |
| OCCCCO [1,4-butanediol] | 1,525 mg/kg | – |
| OCCCO [1,3-propanediol] | – | 16,080 mg/kg |
